Measured values from patent US4659734A, “Olinecarboxylic acid derivatives” (Nippon Shinyaku Co., Ltd., priority 1983, dated 1987).
≈ marks a conversion by molar mass, not a printed value.

What was measured:
[1] = Acute toxicity; details: mouse, in vivo; oral, groups of ten ddY male mice; read-out: 50% Lethal Doses (LD50)
Procedure: Groups of ten ddY strain male mice (body weights: 20±1 grams) of the test compound were orally administered to determine the LD50. There was […] in which many mice died when the dose was 2000 mg/kg or less.

[2] = tested on: Escherichia coli KC-14; assay: Mouse intraperitoneal infection, survival after one week; type: in vivo, ddY strain mice; details: KC14, po; Escherichia coli KC-14, 5 × 10^4 per mouse; one dose per os 2 h after infection
Procedure: (§1) ddY--Strain mice (male; body weight 20±1 grams) of SPF were innoculated with the bacteria set forth in Table 2 by administration of a supension of the bacterial in 4% mucin solution into the abdominal cavity. A compound of the invention was given one time per os two hours after the infection, and, from the survival rate after one week. 50% effective doses (ED50) were calculated by the Behrens-Karber method.

[3] = tested on: Pseudomonas aeruginosa E-2; assay: as above; type: in vivo, ddY strain mice; details: E2, po; Pseudomonas aeruginosa E-2, 2 × 10^5 per mouse; one dose per os 2 h after infection; Behrens-Karber
Procedure: as §1

[4] = tested on: Streptococcus pyogenes S-23; assay: Minimum growth inhibiting concentration, Japan Chemotherapeutic Society method; type: cell-based; details: S23; Streptococcus pyogenes S-23, Gram +; 5% horse blood added agar medium; read-out: Minimum Growth Inhibiting Concn
Procedure: (§2) The Antibacterial activity of the compounds of Examples 14, 13, 22b, 21 and 15 was determined in accordance with the method of Japan Chemotherapeutic Society (cf. Nippon Kagaku Ryoho Gakkai Shi, volume 29, number 1, pages 76 to 79, 1981) and the results are reported in Table 1, which follows. | *5% Horse blood added agar medium for sensitivity measurement being used.

[5] = tested on: Streptococcus pneumoniae Type I; assay: as above; type: cell-based; details: Gram +, 5% horse blood added agar medium, read-out: Minimum Growth Inhibiting Concn
Procedure: as §2

[6] = tested on: Bacillus subtilis ATCC 6633; assay: as above; type: cell-based; details: ATCC6633; Bacillus subtilis ATCC 6633, Gram +; 5% horse blood added agar medium; read-out: Minimum Growth Inhibiting Concn
Procedure: as §2

[7] = tested on: Micrococcus luteus ATCC 9341; assay: as above; type: cell-based; details: ATCC9341; Micrococcus luteus ATCC 9341, Gram +; read-out: Minimum Growth Inhibiting Concn
Procedure: (§3) The Antibacterial activity of the compounds of Examples 14, 13, 22b, 21 and 15 was determined in accordance with the method of Japan Chemotherapeutic Society (cf. Nippon Kagaku Ryoho Gakkai Shi, volume 29, number 1, pages 76 to 79, 1981) and the results are reported in Table 1, which follows.

[8] = tested on: Pseudomonas maltophilia ATCC 13637; assay: as above; type: cell-based; details: Stenotrophomonas maltophilia, ATCC13637; Pseudomonas maltophilia ATCC 13637, Gram -; read-out: Minimum Growth Inhibiting Concn
Procedure: as §3

[9] = tested on: Pseudomonas cepacia ATCC 25416; assay: as above; type: cell-based; details: Burkholderia cepacia, ATCC25416; Pseudomonas cepacia ATCC 25416, Gram -; read-out: Minimum Growth Inhibiting Concn
Procedure: as §3

[10] = tested on: Escherichia coli KC-14; assay: as above; type: cell-based; details: KC14; Escherichia coli KC-14, Gram -; read-out: Minimum Growth Inhibiting Concn
Procedure: as §3

[11] = tested on: Proteus mirabilis 181; assay: as above; type: cell-based; details: Proteus mirabilis 181, Gram -; read-out: Minimum Growth Inhibiting Concn
Procedure: as §3

[12] = tested on: Klebsiella pneumoniae K-1966; assay: as above; type: cell-based; details: K1966; Klebsiella pneumoniae K-1966, Gram -; read-out: Minimum Growth Inhibiting Concn
Procedure: as §3

[13] = tested on: Pseudomonas aeruginosa No. 12; assay: as above; type: cell-based; details: Pseudomonas aeruginosa No. 12, Gram -; read-out: Minimum Growth Inhibiting Concn
Procedure: as §3

[14] = tested on: Listeria monocytogenes RIMD 1205020; assay: as above; type: cell-based; details: RIMD1205020; Listeria monocytogenes RIMD 1205020, Gram +; read-out: Minimum Growth Inhibiting Concn
Procedure: as §3

[15] = tested on: Proteus vulgaris DX-19; assay: as above; type: cell-based; details: DX19; Proteus vulgaris DX-19, Gram -; read-out: Minimum Growth Inhibiting Concn
Procedure: as §3

[16] = tested on: Acinetobacter calcoacelicus 54; assay: as above; type: cell-based; details: Acinetobacter calcoacelicus 54, Gram -; read-out: Minimum Growth Inhibiting Concn
Procedure: as §3

[17] = tested on: Staphylococcus aureus Smith; assay: as above; type: cell-based; details: Gram +, read-out: Minimum Growth Inhibiting Concn
Procedure: as §3

[18] = tested on: Serracia marcescens IFO 3736; assay: as above; type: cell-based; details: Serracia marcescens IFO 3736, Gram -; read-out: Minimum Growth Inhibiting Concn
Procedure: as §3

[19] = tested on: Alcaligenes faecalis ATCC 8750; assay: as above; type: cell-based; details: ATCC8750; Alcaligenes faecalis ATCC 8750, Gram -; read-out: Minimum Growth Inhibiting Concn
Procedure: as §3

[20] = tested on: Escherichia coli NIHJ JC-2; assay: as above; type: cell-based; details: NIHJJC2; Escherichia coli NIHJ JC-2, Gram -; read-out: Minimum Growth Inhibiting Concn
Procedure: as §3

[21] = tested on: Pseudomonas aeruginosa E-2; assay: as above; type: cell-based; details: E2; Pseudomonas aeruginosa E-2, Gram -; read-out: Minimum Growth Inhibiting Concn
Procedure: as §3

[22] = tested on: Staphylococcus aureus 209-PJC; assay: as above; type: cell-based; details: Gram +, read-out: Minimum Growth Inhibiting Concn
Procedure: as §3

[23] = tested on: Klebsiella pneumoniae K-1966; assay: Mouse intraperitoneal infection, survival after one week; type: in vivo, ddY strain mice; details: K1966, po; Klebsiella pneumoniae K-1966, 3 × 10^3 per mouse; one dose per os 2 h after infection
Procedure: as §1

[24] = tested on: Acimetobacter calcoaceticus; assay: as above; type: in vivo, ddY strain mice; details: po, 1 × 10^7 per mouse, one dose per os 2 h after infection
Procedure: as §1

CN1CCN(c2cc3c(cc2F)c(=O)c(C(=O)O)c2sccn23)CC1 [Example 14, 7-fluoro-8-(4-methyl-1-piperazinyl)-5-oxo-5H-thiazolo(3,2-a)-quinoline-4-carboxylic acid]
LD50 [1]: > 2000 mg/kg | ED50 [2]: 1.5 mg/kg | ED50 [3]: 16 mg/kg | MIC [4]: 0.2 µg/mL (≈ 0.553 µM) | MIC [5]: 0.2 µg/mL (≈ 0.553 µM) | MIC [6]: 0.0063 µg/mL (≈ 0.0174 µM) | MIC [7]: 0.78 µg/mL (≈ 2.16 µM) | MIC [8]: 0.025 µg/mL (≈ 0.0692 µM) | MIC [9]: 0.78 µg/mL (≈ 2.16 µM) | MIC [10]: 0.013 µg/mL (≈ 0.036 µM) | MIC [11]: 0.013 µg/mL (≈ 0.036 µM) | MIC [12]: 0.1 µg/mL (≈ 0.277 µM) | MIC [13]: 0.39 µg/mL (≈ 1.08 µM) | MIC [14]: 1.56 µg/mL (≈ 4.32 µM) | MIC [15]: 0.0063 µg/mL (≈ 0.0174 µM) | MIC [16]: 0.39 µg/mL (≈ 1.08 µM) | MIC [17]: 0.05 µg/mL (≈ 0.138 µM) | MIC [18]: 0.39 µg/mL (≈ 1.08 µM) | MIC [19]: 0.78 µg/mL (≈ 2.16 µM) | MIC [20]: 0.1 µg/mL (≈ 0.277 µM) | MIC [21]: 0.39 µg/mL (≈ 1.08 µM) | MIC [22]: 0.1 µg/mL (≈ 0.277 µM)

C=CCN1CCN(c2cc3c(cc2F)c(=O)c(C(=O)O)c2sccn23)CC1 [Example 15, 8-(4-Allyl-1-piperazinyl)-7-fluoro-5-oxo-5H-thiazolo(3,2-a)-quinoline-4-carboxylic acid]
LD50 [1]: > 2000 mg/kg | ED50 [2]: 2 mg/kg | ED50 [23]: 3.3 mg/kg | ED50 [24]: > 35 mg/kg | ED50 [3]: 10.7 mg/kg | MIC [4]: 0.1 µg/mL (≈ 0.258 µM) | MIC [5]: 0.39 µg/mL (≈ 1.01 µM) | MIC [6]: 0.0063 µg/mL (≈ 0.0163 µM) | MIC [7]: 1.56 µg/mL (≈ 4.03 µM) | MIC [8]: 0.0063 µg/mL (≈ 0.0163 µM) | MIC [9]: 1.56 µg/mL (≈ 4.03 µM) | MIC [10]: 0.05 µg/mL (≈ 0.129 µM) | MIC [11]: 0.2 µg/mL (≈ 0.516 µM) | MIC [12]: 0.05 µg/mL (≈ 0.129 µM) | MIC [13]: 0.78 µg/mL (≈ 2.01 µM) | MIC [14]: 0.39 µg/mL (≈ 1.01 µM) | MIC [15]: 0.05 µg/mL (≈ 0.129 µM) | MIC [16]: 0.39 µg/mL (≈ 1.01 µM) | MIC [17]: 0.013 µg/mL (≈ 0.0336 µM) | MIC [18]: 0.39 µg/mL (≈ 1.01 µM) | MIC [19]: 0.78 µg/mL (≈ 2.01 µM) | MIC [20]: 0.2 µg/mL (≈ 0.516 µM) | MIC [21]: 1.56 µg/mL (≈ 4.03 µM) | MIC [22]: 0.025 µg/mL (≈ 0.0645 µM)

Cc1csc2c(C(=O)O)c(=O)c3cc(F)c(N4CCNCC4)cc3n12 [Example 21, 7-fluoro-1-methyl-5-oxo-8-(1-piperazinyl)-5H-thiazolo(3,2-a)-quinoline-4-carboxylic acid]
LD50 [1]: > 2000 mg/kg | MIC [4]: 0.1 µg/mL (≈ 0.277 µM) | MIC [5]: 0.2 µg/mL (≈ 0.553 µM) | MIC [6]: 0.0063 µg/mL (≈ 0.0174 µM) | MIC [7]: 0.39 µg/mL (≈ 1.08 µM) | MIC [8]: 0.013 µg/mL (≈ 0.036 µM) | MIC [9]: 0.2 µg/mL (≈ 0.553 µM) | MIC [10]: 0.0063 µg/mL (≈ 0.0174 µM) | MIC [11]: 0.05 µg/mL (≈ 0.138 µM) | MIC [12]: 0.013 µg/mL (≈ 0.036 µM) | MIC [13]: 0.39 µg/mL (≈ 1.08 µM) | MIC [14]: 0.2 µg/mL (≈ 0.553 µM) | MIC [15]: 0.0016 µg/mL (≈ 0.00443 µM) | MIC [16]: 0.2 µg/mL (≈ 0.553 µM) | MIC [17]: 0.013 µg/mL (≈ 0.036 µM) | MIC [18]: 0.2 µg/mL (≈ 0.553 µM) | MIC [19]: 0.78 µg/mL (≈ 2.16 µM) | MIC [20]: 0.025 µg/mL (≈ 0.0692 µM) | MIC [21]: 0.39 µg/mL (≈ 1.08 µM) | MIC [22]: 0.025 µg/mL (≈ 0.0692 µM)
